Legend:
[1] = Cytotoxicity toward MDA-MB-468 breast carcinoma cells; type: cell-based, human; parameters: viability: concentration or dose not given beside the values; settings: human, MDA-MB-468 breast carcinoma cells; read-out: cytotoxicity (%) toward MDA-MB-468 (cell viability)
[2] = system: α-glucosidase from Saccharomyces cerevisiae; experiment: α-glucosidase inhibition assay (PNPG substrate); type: biochemical; settings: for inhibition of α-glucosidase: initial concentration of 1 mM; for IC50: three replicates, read-out: IC50 against α-glucosidase
Protocol: The α-glucosidase inhibitory effect was assessed as follows. First, 0.2 U of α-glucosidase from Saccharomyces cerevisiae was purchased from Sigma-Aldrich (St. Louis, MO, USA), and was diluted in a 0.067 M phosphate buffer consisting of Na2HPO4·12H2O and KH2PO4 (pH 6.8). The assay was conducted in a 60 μL reaction system containing 20 μL of diluted enzyme solution, and 20μL of dimethyl sulfoxide (DMSO) or sample (dissolved in DMSO). […] The plate was incubated for an additional 20 min at 37 °C, and the reaction was quenched by adding 60 μL of 0.2 M Na2CO3. The final concentrations of tested compounds were between 0.2 and 2 mM. The optical density (OD) was measured at an absorbance wavelength of 405 nm using a Microplate Reader (Tecan, Mannedorf, Switzerland).

[3] = system: NO production in LPS-activated RAW 264.7 macrophages; experiment: Inhibition of NO production in LPS-activated RAW 264.7 macrophages; type: cell-based; settings: Mus musculus, RAW264.7, 50 μM, read-out: Inhibitions (%) on NO production
Protocol: (§1) The isolated compounds were also evaluated for their inhibitory effects against NO production in LPS-activated RAW 264.7 macrophages at the concentration of 50 μM following the same procedures in our previous study. The cell viability was further determined by the MTT assay to evaluate whether the inhibition on NO production was owing to the cytotoxicity.

[4] = Cytotoxicity toward MCF-7 breast carcinoma cells; type: cell-based; parameters: concentration or dose not given beside the values; settings: human, read-out: cytotoxicity (%) toward MCF-7 (cell viability)
[5] = MTT cell viability of RAW 264.7 macrophages; type: cell-based; settings: mouse, LPS-activated RAW 264.7 macrophages, MTT assay, read-out: cytotoxicity (%) toward RAW 264.7 (cell viability)
Protocol: as §1

RAW 264.7 cells = experiment: MTT cell viability of RAW 264.7 macrophages; type: cell-based; settings: MTT assay, 50 μM
Protocol: as §1

MDA-MB-468 cells = experiment: Cytotoxicity toward MDA-MB-468 breast carcinoma cells; type: cell-based, human; parameters: viability: concentration or dose not given beside the values; settings: Homo sapiens, MDA-MB-468

inhibition of α-glucosidase [2]	IC50 [2] [µM]	SMILES	viability [1] [%]	inhibition at 50 µM [3] [%]	viability [4] [%]	viability at 50 µM [5] [%]	cytotoxicity (%) toward RAW 264.7 (cell viability) (RAW 264.7 cells)	IC50 (MDA-MB-468 cells) [µM]
more than 50%	910 ± 4	COC(=O)CC[C@]1(C)[C@H]2Cc3c(c(C)c4c(c3OC)C(=O)OC4)O[C@@]2(C)CC[C@H]1C(C)(C)O [Compound 2, austalide P]	78.2	> 50	117	46.2	obvious cytotoxic effects	
low inhibition		C=C1CCC2C(C)(CCC(O)C2(C)C(=O)O)C1CCC(C)=CC(=O)O (stereo not drawn) [Compound 9, 3β-hydroxy-agathic acid]	92.1	7.81	88.8	83.3		
		COC(=O)CC[C@]1(C)[C@H]2Cc3c(c(C)c4c(c3OC)C(=O)OC4)O[C@@]2(C)C[C@@H](O)[C@H]1C(C)(C)O [Compound 3, austalide H]	87.2	-9.91	84.7	60.9		
more than 50%	525 ± 2	C=C1CC[C@@H]2[C@](C)(CCC[C@]2(C)C(=O)O)[C@H]1CC/C(C)=C/C(=O)O [Compound 11, agathic acid]	89.3	4.85	83.5	89.9		
		C=C(C)[C@@H]1[C@H](O)C[C@]2(C)Oc3c(C)c4c(c(OC)c3C[C@@H]2[C@@]1(C)CCC(=O)O)C(=O)OC4 [Compound 7, austalide Q acid]	91.1	-3.08	74.8	80.8		
		COc1c2c(c(C)c3c1C(=O)OC3)O[C@@]1(C)CC[C@@H](C(C)(C)O)[C@](C)(CCC(=O)O)[C@H]1C2 [Compound 4, austalide P acid]	92.6	5.29	82.4	97.4		
		COc1c2c(c(C)c3c1C(=O)OC3)OC1(C)CC(O)C34OC(O)(CCC3(C)C1C2)OC4(C)C (stereo not shown) [Compound 6, 17-O-demethylaustalide B]	92.3	-3.74	73.8	74.6		
		COc1c2c(c(C)c3c1C(=O)OC3)O[C@@]1(C)C[C@@H](O)[C@@H](C(C)(C)O)[C@](C)(CCC(=O)O)[C@H]1C2 [Compound 5, austalide H acid]	87.3	12.1	69.1	104		
		C=C(C)[C@@H]1CC[C@]2(C)Oc3c(C)c4c(c(OC)c3C[C@@H]2[C@@]1(C)CCC(=O)O)C(=O)OC4 [Compound 8, 13-deoxyaustalide Q acid]	79.3	24	76.3	53.5		
		COC(=O)CCC1(C)C(C(C)(C)O)CCC2(C)Oc3c(C)c4c(c(O)c3CC21)C(=O)OC4 (stereo not shown) [Compound 1, austalide Y]	31.6		104	33.1	obvious cytotoxic effects	38.9 ± 1.83

SMILES	inhibition of α-glucosidase [2]	IC50 [2] [µM]	viability [1] [%]	inhibition at 50 µM [3] [%]	viability [4] [%]	viability at 50 µM [5] [%]	cytotoxicity (%) toward RAW 264.7 (cell viability) (RAW 264.7 cells)	IC50 (MDA-MB-468 cells) [µM]
C=C1CCC2C(C)(CCC(OC(C)=O)C2(C)C(=O)O)C1CCC(C)=CC(=O)O (stereo not drawn) [Compound 10, 3β-acetoxy-agathic acid]	low inhibition		94.5		90	58.4	obvious cytotoxic effects	

— article PMC7143578, “Terpenoids from the Deep-Sea-Derived Fungus Penicillium thomii YPGA3 and Their Bioactivities” (Marine Drugs, 2020)
